Measured values as given in patent US12606541B2, “PPARg modulators and methods of use” (Eisai R&D Management Co., Ltd., priority 2020, dated 2026).

Target: T1, His6-TEV-PPARγ-(234-505) (Homo sapiens, UniProt P37231)
T1 construct: The His6-TEV-PPARγ-(234-505) protein for assay was expressed and purified; TEV cleavage site (N); made in house
T1 sequence (P37231 234-505): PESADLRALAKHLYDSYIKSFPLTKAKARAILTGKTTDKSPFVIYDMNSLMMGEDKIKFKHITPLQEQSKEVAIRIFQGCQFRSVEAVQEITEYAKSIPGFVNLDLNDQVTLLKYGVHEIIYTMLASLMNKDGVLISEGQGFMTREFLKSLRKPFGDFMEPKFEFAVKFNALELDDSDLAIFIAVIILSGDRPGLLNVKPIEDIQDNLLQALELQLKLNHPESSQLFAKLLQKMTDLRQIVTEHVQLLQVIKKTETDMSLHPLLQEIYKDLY
Experiment: TR-FRET Assay to Measure Co-R Peptide Recruitment to PPARγ
Type: biochemical
Details: Co-R peptide recruitment to PPARγ; read-out: TR-FRET AC50
Procedure, shortened: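 Corepressor recruitment is measured by adding terbium-labeled anti-His antibody and FITC SMRT-ID2 peptide, at 5 and 200 nM final, after a 20-minute room-temperature protein–compound incubation. After one further hour, signal is converted to percent response between DMSO and 500 nM T0070907 wells.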

SMILES | AC50 [µM]
COc1cc(-c2cc(C(=O)N3CCC(C(=O)NCc4ccn5ccnc5c4)CC3)n[nH]2)c(Cl)cn1 [1-[5-(5-chloro-2-methoxypyridin-4-yl)-1H-pyrazole-3-carbonyl]-N-({imidazo[1,2-a]pyridin-7-yl}methyl)piperidine-4-carboxamide] | > 1
COc1cc(-c2cc(C(=O)N3CCC(C(=O)NCc4cn5cccnc5n4)CC3)n[nH]2)c(Cl)cn1 [1-[5-(5-chloro-2-methoxypyridin-4-yl)-1H-pyrazole-3-carbonyl]-N-({imidazo[1,2-a]pyrimidin-2-yl}methyl)piperidine-4-carboxamide] | > 1
COc1cc(-c2cc(C(=O)N3CCC(C(=O)NCc4cnc5nccn5c4)CC3)n[nH]2)c(Cl)cn1 [1-[5-(5-chloro-2-methoxypyridin-4-yl)-1H-pyrazole-3-carbonyl]-N-({imidazo[1,2-a]pyrimidin-6-yl}methyl)piperidine-4-carboxamide] | > 1
COc1cc(-c2cc(C(=O)N3CCC(C(=O)NC4(c5cccc(Cl)c5)CC4)CC3)n[nH]2)c(Cl)cn1 [1-[5-(5-chloro-2-methoxypyridin-4-yl)-1H-pyrazole-3-carbonyl]-N-[1-(3-chlorophenyl)cyclopropyl]piperidine-4-carboxamide] | > 1
COc1cc(-c2cc(C(=O)N3CCC(C(=O)NC(C)C4COC4)CC3)n[nH]2)c(Cl)cn1 (stereo not shown) [1-[5-(5-chloro-2-methoxypyridin-4-yl)-1H-pyrazole-3-carbonyl]-N-[1-(oxetan-3-yl)ethyl]piperidine-4-carboxamide] | > 1
COc1cc(-c2cc(C(=O)N3CCC(C(=O)NC(C)c4cnccn4)CC3)n[nH]2)c(Cl)cn1 (stereo not shown) [1-[5-(5-chloro-2-methoxypyridin-4-yl)-1H-pyrazole-3-carbonyl]-N-[1-(pyrazin-2-yl)ethyl]piperidine-4-carboxamide] | > 1
COc1cc(-c2cc(C(=O)N3CCC(C(=O)NC(C)c4ncccn4)CC3)n[nH]2)c(Cl)cn1 (stereo not shown) [1-[5-(5-chloro-2-methoxypyridin-4-yl)-1H-pyrazole-3-carbonyl]-N-[1-(pyrimidin-2-yl)ethyl]piperidine-4-carboxamide] | > 1
COc1cc(-c2cc(C(=O)N3CCC(C(=O)NCCn4ccccc4=O)CC3)n[nH]2)c(Cl)cn1 [1-[5-(5-chloro-2-methoxypyridin-4-yl)-1H-pyrazole-3-carbonyl]-N-[2-(2-oxo-1,2-dihydropyridin-1-yl)ethyl]piperidine-4-carboxamide] | > 1
COc1cc(-c2cc(C(=O)N3CCC(C(=O)NC(C)(C)c4cccc(Cl)c4)CC3)n[nH]2)c(Cl)cn1 [1-[5-(5-chloro-2-methoxypyridin-4-yl)-1H-pyrazole-3-carbonyl]-N-[2-(3-chlorophenyl)propan-2-yl]piperidine-4-carboxamide] | > 1
COc1cc(-c2cc(C(=O)N3CCC(C(=O)NC4CC4C(F)(F)F)CC3)n[nH]2)c(Cl)cn1 (stereo not shown) [1-[5-(5-chloro-2-methoxypyridin-4-yl)-1H-pyrazole-3-carbonyl]-N-[2-(trifluoromethyl)cyclopropyl]piperidine-4-carboxamide] | > 1
COc1cc(-c2cc(C(=O)N3CCC(C(=O)Nc4cc(C(F)(F)F)no4)CC3)n[nH]2)c(Cl)cn1 [1-[5-(5-chloro-2-methoxypyridin-4-yl)-1H-pyrazole-3-carbonyl]-N-[3-(trifluoromethyl)-1,2-oxazol-5-yl]piperidine-4-carboxamide] | > 1
COc1cc(-c2cc(C(=O)N3CCC(C(=O)Nc4ccc(CS(C)(=O)=O)cc4)CC3)n[nH]2)c(Cl)cn1 [1-[5-(5-chloro-2-methoxypyridin-4-yl)-1H-pyrazole-3-carbonyl]-N-[4-(methanesulfonylmethyl)phenyl]piperidine-4-carboxamide] | > 1
COc1cc(-c2cc(C(=O)N3CCC(C(=O)Nc4cc(C(F)(F)F)ccn4)CC3)n[nH]2)c(Cl)cn1 [1-[5-(5-chloro-2-methoxypyridin-4-yl)-1H-pyrazole-3-carbonyl]-N-[4-(trifluoromethyl)pyridin-2-yl]piperidine-4-carboxamide] | > 1
COc1cc(-c2cc(C(=O)N3CCC(C(=O)Nc4ncc(C(C)C)s4)CC3)n[nH]2)c(Cl)cn1 [1-[5-(5-chloro-2-methoxypyridin-4-yl)-1H-pyrazole-3-carbonyl]-N-[5-(propan-2-yl)-1,3-thiazol-2-yl]piperidine-4-carboxamide] | > 1
COc1cc(-c2cc(C(=O)N3CCC(C(=O)NCc4ncon4)CC3)n[nH]2)c(Cl)cn1 [1-[5-(5-chloro-2-methoxypyridin-4-yl)-1H-pyrazole-3-carbonyl]-N-[(1,2,4-oxadiazol-3-yl)methyl]piperidine-4-carboxamide] | > 1
COc1cc(-c2cc(C(=O)N3CCC(C(=O)NCc4ccon4)CC3)n[nH]2)c(Cl)cn1 [1-[5-(5-chloro-2-methoxypyridin-4-yl)-1H-pyrazole-3-carbonyl]-N-[(1,2-oxazol-3-yl)methyl]piperidine-4-carboxamide] | > 1

SMILES | AC50 [µM]
COc1cc(-c2cc(C(=O)N3CCC(C(=O)NCc4c(C)nn(C)c4C)CC3)n[nH]2)c(Cl)cn1 [1-[5-(5-chloro-2-methoxypyridin-4-yl)-1H-pyrazole-3-carbonyl]-N-[(1,3,5-trimethyl-1H-pyrazol-4-yl)methyl]piperidine-4-carboxamide] | > 1
COc1cc(-c2cc(C(=O)N3CCC(C(=O)NCC4OCCCO4)CC3)n[nH]2)c(Cl)cn1 [1-[5-(5-chloro-2-methoxypyridin-4-yl)-1H-pyrazole-3-carbonyl]-N-[(1,3-dioxan-2-yl)methyl]piperidine-4-carboxamide] | > 1
COc1cc(-c2cc(C(=O)N3CCC(C(=O)NCC4CCOCO4)CC3)n[nH]2)c(Cl)cn1 (stereo not shown) [1-[5-(5-chloro-2-methoxypyridin-4-yl)-1H-pyrazole-3-carbonyl]-N-[(1,3-dioxan-4-yl)methyl]piperidine-4-carboxamide] | > 1
COc1cc(-c2cc(C(=O)N3CCC(C(=O)NCC4OCCO4)CC3)n[nH]2)c(Cl)cn1 [1-[5-(5-chloro-2-methoxypyridin-4-yl)-1H-pyrazole-3-carbonyl]-N-[(1,3-dioxolan-2-yl)methyl]piperidine-4-carboxamide] | > 1
COc1cc(-c2cc(C(=O)N3CCC(C(=O)NCc4ncco4)CC3)n[nH]2)c(Cl)cn1 [1-[5-(5-chloro-2-methoxypyridin-4-yl)-1H-pyrazole-3-carbonyl]-N-[(1,3-oxazol-2-yl)methyl]piperidine-4-carboxamide] | > 1
COc1cc(-c2cc(C(=O)N3CCC(C(=O)NCc4cnco4)CC3)n[nH]2)c(Cl)cn1 [1-[5-(5-chloro-2-methoxypyridin-4-yl)-1H-pyrazole-3-carbonyl]-N-[(1,3-oxazol-5-yl)methyl]piperidine-4-carboxamide] | > 1
COc1cc(-c2cc(C(=O)N3CCC(C(=O)NCC4COCCO4)CC3)n[nH]2)c(Cl)cn1 (stereo not shown) [1-[5-(5-chloro-2-methoxypyridin-4-yl)-1H-pyrazole-3-carbonyl]-N-[(1,4-dioxan-2-yl)methyl]piperidine-4-carboxamide] | > 1
COc1cc(-c2cc(C(=O)N3CCC(C(=O)NCC4(C#N)CC4)CC3)n[nH]2)c(Cl)cn1 [1-[5-(5-chloro-2-methoxypyridin-4-yl)-1H-pyrazole-3-carbonyl]-N-[(1-cyanocyclopropyl)methyl]piperidine-4-carboxamide] | > 1
COc1cc(-c2cc(C(=O)N3CCC(C(=O)NCC4(O)CCC4)CC3)n[nH]2)c(Cl)cn1 [1-[5-(5-chloro-2-methoxypyridin-4-yl)-1H-pyrazole-3-carbonyl]-N-[(1-hydroxycyclobutyl)methyl]piperidine-4-carboxamide] | > 1
COc1cc(-c2cc(C(=O)N3CCC(C(=O)NCC4(O)CC4)CC3)n[nH]2)c(Cl)cn1 [1-[5-(5-chloro-2-methoxypyridin-4-yl)-1H-pyrazole-3-carbonyl]-N-[(1-hydroxycyclopropyl)methyl]piperidine-4-carboxamide] | > 1
COc1cc(-c2cc(C(=O)N3CCC(C(=O)NCc4nccn4C)CC3)n[nH]2)c(Cl)cn1 [1-[5-(5-chloro-2-methoxypyridin-4-yl)-1H-pyrazole-3-carbonyl]-N-[(1-methyl-1H-imidazol-2-yl)methyl]piperidine-4-carboxamide] | > 1
COc1cc(-c2cc(C(=O)N3CCC(C(=O)NCc4cn(C)cn4)CC3)n[nH]2)c(Cl)cn1 [1-[5-(5-chloro-2-methoxypyridin-4-yl)-1H-pyrazole-3-carbonyl]-N-[(1-methyl-1H-imidazol-4-yl)methyl]piperidine-4-carboxamide] | > 1
COc1cc(-c2cc(C(=O)N3CCC(C(=O)NCc4ccn(C)n4)CC3)n[nH]2)c(Cl)cn1 [1-[5-(5-chloro-2-methoxypyridin-4-yl)-1H-pyrazole-3-carbonyl]-N-[(1-methyl-1H-pyrazol-3-yl)methyl]piperidine-4-carboxamide] | > 1
COc1cc(-c2cc(C(=O)N3CCC(C(=O)NCC4CC(=O)N(C)C4)CC3)n[nH]2)c(Cl)cn1 (stereo not shown) [1-[5-(5-chloro-2-methoxypyridin-4-yl)-1H-pyrazole-3-carbonyl]-N-[(1-methyl-5-oxopyrrolidin-3-yl)methyl]piperidine-4-carboxamide] | > 1
COc1cc(-c2cc(C(=O)N3CCC(C(=O)NCC4CN(C)C4)CC3)n[nH]2)c(Cl)cn1 [1-[5-(5-chloro-2-methoxypyridin-4-yl)-1H-pyrazole-3-carbonyl]-N-[(1-methylazetidin-3-yl)methyl]piperidine-4-carboxamide] | > 1
